# From patent US20220304992A1, “METHODS OF REJUVENATING AGED TISSUE BY INHIBITING 15-HYDROXYPROSTAGLANDIN DEHYDROGENASE (15-PGDH)” (The Board of Trustees of the Leland Stanford Junior …, priority 2019, published 2022)
# “Also recorded” adds a separate entry of the source.
# Columns and labels:
# aged mice = test: Muscle mass, plantar flexion tetanic force and treadmill endurance in aged and young C57BL/6 mice; type: in vivo, mouse; settings: aged (>24 mo) mice, daily i.p. 5 mg/kg, 1 month, 5 mg/kg
# Description: (§1) We performed all experiments and protocols in compliance with the institutional guidelines of Stanford University and Administrative Panel on Laboratory Animal Care (APLAC). Mid (18 mo.) and aged (>24 mo.) mice C57BL/6 were obtained the US National Institute on Aging (NIA) for aged muscle studies, and young (2-4 mo.) wild-type C57BL/6 mice from Jackson Laboratory. Mice were maintained in specific-pathogen free housing on a 12-hour dark/light cycle for study duration.
# (§2) Time and distance to exhaustion was performed as previously described (4) for SW-treated mice and their controls (FIG. 3A).
# (§3) The peak isometric torque (N·mm) of the ankle plantarflexors was assessed as previously described (8,9). Briefly, the foot of anesthetized mice was placed on a footplate attached to a servomotor (model 300C-LR; Aurora Scientific). Two Pt-Ir electrode needles (Aurora Scientific) were inserted percutaneously were inserted subcutaneously over the tibial nerve, just posterior/posterior-medial to the knee. The ankle joint was secured at a 90° angle. The peak isometric torque was achieved by varying the current delivered to the tibial nerve at a frequency of 200 Hz and a 0.1-ms square wave pulse. We performed three tetanic measurements on each muscle, with 1 min recovery between each measurement. Data were collected with the Aurora Scientific Dynamic Muscle Data Acquisition and Analysis Software.
# (§4) We performed all experiments and protocols in compliance with the institutional guidelines of Stanford University and Administrative Panel on Laboratory Animal Care (APLAC). Middle aged (18-20 mo.) and aged (>24 mo.) mice C57BL/6 were obtained the US National Institute on Aging (NIA) for aged muscle studies, and young (2-4 mo.) wild-type C57BL/6 mice from Jackson Laboratory. INK-ATTAC mice were generated as previously described (1). INK-ATTAC healthspan assessments. INK-ATTAC mice were crossed onto the C57BL6/J genetic background and maintained in specific-pathogen free housing on a 12-hour dark/light cycle for study duration. At 12 months of age, male mice were either utilized for baseline healthspan assessments and terminal muscle harvest or randomized to receive twice-weekly vehicle or AP20187 (2 mg/kg intraperitoneal injection; B/B homodimerizer, Clontech) until assessment and sacrifice at 28 months of age (2). […] Time and distance to exhaustion was performed as previously described (4) for SW-treated mice and their controls. […]
# as §3, with “described (21, 22).” for “described (8,9).”, “percutaneously and” for “percutaneously were inserted”, “a 0.1—ms” for “a 0.1-ms”
# [1] = as above; type: in vivo, mouse; settings: young mice, daily i.p., 1 month
# Description: as §1, §2, §3, §4
# as §3, with “described (21, 22).” for “described (8,9).”, “percutaneously and” for “percutaneously were inserted”, “a 0.1—ms” for “a 0.1-ms”
# [2] = tested on: atrogene and other transcript levels in aged muscles; test: Quantitative RT-PCR of treated aged muscle tissue; type: in vivo, mouse
# Description: We isolated RNA from MuSCs using the RNeasy Micro Kit (Qiagen). For muscle samples, we snap froze the tissue in liquid nitrogen, homogenized muscles in Trizol (Invitrogen) using the FastPrep FP120 homogenizer (MP Biomedicals), and then isolated RNA. We reverse-transcribed cDNA from total mRNA from each sample using the SensiFAST™ cDNA Synthesis Kit (Bioline). We subjected cDNA to RT-PCR using SYBR Green PCR Master Mix (Applied Biosystems) or TaqMan Assays (Applied Biosystems) in an ABI 7900HT Real-Time PCR System (Applied Biosystems). We cycled samples at 95° C. for 10 min and then 40 cycles at 95° C. for 15 s and 60° C. for 1 min. To quantify relative transcript levels, we used 2-ΔΔCt to compare treated and untreated samples and expressed the results relative to Gapdh.
# For SYBR Green qRT-PCR, we used the following primer sequences: Gapdh, 30 forward 5′-[…]-3′, reverse 5′-[…]-3′; Hpgd, forward 5′-[…] -3′, reverse 5′-[…]-3′; Ptger1, forward 5′ […]-3′, reverse 5′-[…]-3′, Ptger2, forward 5′-[…]-3′, reverse 5′-[…]-3′, Cox2, forward, 5′-[…]-3′, reverse 5′-[…]-3′; Fbxo32, forward 5′-[…]-3′, reverse 5′-[…]-3′. For murine senescence markers and senescence associated markers we used the previously described primers (6).
# TaqMan Assays (Applied Biosystems) were used to quantify Pax7, Myh, p21, Ptger3 and Ptger4 in samples according to the manufacturer instructions with the TaqMan Universal PCR Master Mix reagent kit (Applied Biosystems). Transcript levels were expressed relative to Gapdh levels. For SYBR Green qPCR, Gapdh qPCR was used to normalize input cDNA samples. For Taqman qPCR, multiplex qPCR enabled target signals (FAM) to be normalized individually by their internal Gapdh signals (VIC).
# We isolated RNA from MuSCs, myoblasts and myotubes using the RNeasy Kit (Qiagen). Muscle samples were snap frozen in liquid nitrogen, then homogenized in Trizol (Invitrogen) using the FastPrep FP120 homogenizer (MP Biomedicals) before isolating RNA. We reverse-transcribed cDNA from total mRNA from each sample using the SensiFAST™ cDNA Synthesis Kit (Bioline). We subjected cDNA to RT-PCR using SYBR Green PCR Master Mix (Applied Biosystems) or TaqMan Assays (Applied Biosystems) in an ABI 7900HT Real-Time PCR System (Applied Biosystems). […] To quantify relative transcript levels, we used 2-ΔΔCt to compare treated and untreated samples and expressed the results relative to Gapdh. […]
# For murine senescence markers and senescence associated markers we used the previously described primers (2). TaqMan Assays (Applied Biosystems) were used to quantify p21, Mstn, Ptger3 and Ptger4 in samples according to the manufacturer instructions with the TaqMan Universal PCR Master Mix reagent kit (Applied Biosystems). […] Mitochondrial copy number was quantified by using method and primers described previously (14).
# [3] = tested on: bone marrow, colon, lung, and liver; settings: cited from earlier work
smiles,measurement,setting,value
"CCCC[S+]([O-])c1sc2nc(-c3cccs3)cc(-c3ccccc3)c2c1N (stereo not shown) [SW033291, 2-(butylsulfinyl)-4-phenyl-6-(thiophen-2-yl)thieno[2,3-b]pyridin-3-amine]",endurance (time to exhaustion on a treadmill),aged mice,increases; also recorded: significant increase
same,"muscle mass (weight of dissected GA, TA, soleus)",aged mice,increases; also recorded: significant increase
same,muscle strength (plantar flexion tetanic force),aged mice,increases; also recorded: significant increase
same,endurance (time to exhaustion on a treadmill),aged mice; listed as SW,increased
same,"muscle mass (weight of dissected GA, TA, soleus)",aged mice; listed as SW,significant increase
same,muscle strength (plantar flexion tetanic force),aged mice; listed as SW,significant increase
same,absolute strength,[1],not statistically significant
same,muscle mass,[1],not statistically significant
same,"other aging, inflammatory and autophagy markers","[2]; aged mice, SW treatment",no significant changes
same,Pgc1α mRNA level,"[2]; aged muscles, SW treatment",restored to that seen in young muscles
same,expression of Fbxo32 (Atrogin1) at the mRNA level,"[2]; aged muscles, SW treatment",decreased expression
same,"expression of atrogenes (Atrogin-1, MuRF1, Musa1, Smart) and Traf6 by RT-qPCR","[2]; aged muscles, SW vs vehicle",diminished
same,increase of PGE2 levels in vivo,[3],2 fold
